Source: patent publication US10040781B2, “Tank-binding kinase inhibitor compounds” (Gilead Sciences, Inc., priority 2014, dated 2018)

Columns and labels:
IKKε = IKKε (Homo sapiens (Human), UniProt Q14164); experiment: IKKε TR-FRET enzymatic assay; format: biochemical; settings: read-out: IKKe IC50
hJAK2 = hJAK2 (Homo sapiens (Human), UniProt O60674); experiment: hJAK2 LANCE TR-FRET enzymatic assay; format: biochemical; settings: read-out: JAK2 IC50
TBK1 = TBK1 (Homo sapiens (Human), UniProt Q9UHD2); experiment: TBK1 TR-FRET enzymatic assay;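 note: phosphorylation of a biotinylated Ser/Thr peptide by purified full-length recombinant TBK1, read by TR-FRET after 240 min at 25 °C, IC50 is the geometric mean of at least four runs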
Chain of TBK1 (Q9UHD2 whole entry): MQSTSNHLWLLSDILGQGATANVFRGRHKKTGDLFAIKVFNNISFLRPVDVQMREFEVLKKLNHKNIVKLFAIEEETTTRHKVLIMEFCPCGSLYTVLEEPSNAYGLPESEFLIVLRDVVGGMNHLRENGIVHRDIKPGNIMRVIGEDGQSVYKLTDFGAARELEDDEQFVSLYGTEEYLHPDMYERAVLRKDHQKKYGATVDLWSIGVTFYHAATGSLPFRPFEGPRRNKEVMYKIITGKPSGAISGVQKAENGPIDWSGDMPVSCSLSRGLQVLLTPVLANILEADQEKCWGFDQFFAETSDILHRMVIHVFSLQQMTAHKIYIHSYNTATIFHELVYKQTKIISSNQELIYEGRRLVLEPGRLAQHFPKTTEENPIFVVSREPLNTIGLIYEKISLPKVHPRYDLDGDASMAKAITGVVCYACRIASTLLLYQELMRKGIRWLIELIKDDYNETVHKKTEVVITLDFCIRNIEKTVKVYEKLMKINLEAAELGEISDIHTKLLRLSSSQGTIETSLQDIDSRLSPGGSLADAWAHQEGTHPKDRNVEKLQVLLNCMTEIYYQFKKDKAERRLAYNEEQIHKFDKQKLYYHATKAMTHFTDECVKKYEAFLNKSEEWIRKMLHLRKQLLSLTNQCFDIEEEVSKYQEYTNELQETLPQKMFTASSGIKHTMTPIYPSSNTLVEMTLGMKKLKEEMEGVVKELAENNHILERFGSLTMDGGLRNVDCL

Chain of hJAK2 (O60674 whole entry): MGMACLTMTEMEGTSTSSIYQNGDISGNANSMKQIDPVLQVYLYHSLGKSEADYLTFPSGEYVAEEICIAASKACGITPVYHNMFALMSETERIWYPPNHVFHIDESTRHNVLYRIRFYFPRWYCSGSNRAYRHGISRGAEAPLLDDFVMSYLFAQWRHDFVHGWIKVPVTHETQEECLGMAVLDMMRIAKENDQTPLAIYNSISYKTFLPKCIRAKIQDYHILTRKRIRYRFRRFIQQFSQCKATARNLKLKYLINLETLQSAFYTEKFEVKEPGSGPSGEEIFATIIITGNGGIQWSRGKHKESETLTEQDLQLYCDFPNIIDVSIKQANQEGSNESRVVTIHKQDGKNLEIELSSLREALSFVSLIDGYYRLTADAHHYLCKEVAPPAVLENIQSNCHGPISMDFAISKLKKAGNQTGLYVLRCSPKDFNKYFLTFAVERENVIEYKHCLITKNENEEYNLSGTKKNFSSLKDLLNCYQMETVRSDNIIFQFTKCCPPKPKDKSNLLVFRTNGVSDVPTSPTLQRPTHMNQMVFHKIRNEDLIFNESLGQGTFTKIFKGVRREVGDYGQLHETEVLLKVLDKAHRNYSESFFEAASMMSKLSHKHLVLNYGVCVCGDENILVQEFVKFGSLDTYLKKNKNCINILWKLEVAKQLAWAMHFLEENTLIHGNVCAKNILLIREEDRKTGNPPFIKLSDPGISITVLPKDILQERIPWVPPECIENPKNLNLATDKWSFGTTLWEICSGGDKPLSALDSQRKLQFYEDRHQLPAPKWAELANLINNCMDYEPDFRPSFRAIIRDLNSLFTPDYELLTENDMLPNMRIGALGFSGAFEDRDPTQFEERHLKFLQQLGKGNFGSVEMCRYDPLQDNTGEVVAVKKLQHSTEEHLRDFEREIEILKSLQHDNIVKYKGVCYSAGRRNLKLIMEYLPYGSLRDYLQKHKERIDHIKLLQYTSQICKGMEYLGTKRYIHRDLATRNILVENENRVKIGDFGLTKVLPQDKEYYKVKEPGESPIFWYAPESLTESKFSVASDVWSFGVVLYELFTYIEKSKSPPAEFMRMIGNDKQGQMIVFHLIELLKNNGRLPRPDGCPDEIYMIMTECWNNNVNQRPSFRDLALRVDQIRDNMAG
Chain of IKKε (Q14164 whole entry): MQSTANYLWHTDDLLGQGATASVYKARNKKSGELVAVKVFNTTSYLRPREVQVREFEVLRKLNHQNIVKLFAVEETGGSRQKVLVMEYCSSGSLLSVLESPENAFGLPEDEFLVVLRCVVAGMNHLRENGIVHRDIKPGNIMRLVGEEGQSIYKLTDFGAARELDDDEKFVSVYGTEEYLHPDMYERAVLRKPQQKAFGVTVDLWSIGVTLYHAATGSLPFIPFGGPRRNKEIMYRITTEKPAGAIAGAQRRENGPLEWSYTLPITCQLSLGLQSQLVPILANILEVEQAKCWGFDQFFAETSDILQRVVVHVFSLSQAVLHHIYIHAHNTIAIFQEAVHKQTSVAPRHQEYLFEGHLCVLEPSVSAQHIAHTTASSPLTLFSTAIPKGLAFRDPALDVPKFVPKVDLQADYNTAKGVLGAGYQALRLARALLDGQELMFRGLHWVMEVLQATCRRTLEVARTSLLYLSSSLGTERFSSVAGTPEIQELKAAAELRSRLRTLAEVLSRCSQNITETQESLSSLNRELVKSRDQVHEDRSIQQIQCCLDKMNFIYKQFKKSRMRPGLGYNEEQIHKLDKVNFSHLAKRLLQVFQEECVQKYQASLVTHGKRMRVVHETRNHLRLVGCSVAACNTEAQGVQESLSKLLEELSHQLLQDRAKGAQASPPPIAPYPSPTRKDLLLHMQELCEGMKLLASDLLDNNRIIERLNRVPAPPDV

N#Cc1cc(-c2ncnc(Nc3ccc(N4CCN(C5COC5)CC4)c(F)c3)n2)ccc1O[C@H]1CCN(C(=O)c2cnn[nH]2)C[C@H]1F [Example 373, 2-(((3R,4S)-3-fluoro-1-(1H-1,2,3-triazole-5-carbonyl)piperidin-4-yl)oxy)-5-(4-((3-fluoro-4-(4-(oxetan-3-yl)piperazin-1-yl)phenyl)amino)-1,3,5-triazin-2-yl)benzonitrile]
IC50 (IKKε): 1 nM
IC50 (hJAK2): 146 nM
IC50 (TBK1): 2 nM

N#Cc1cc(-c2ncnc(Nc3ccc(N4CCN(C5COC5)CC4)cc3F)n2)ccc1O[C@H]1CCN(C(=O)[C@@H]2CCC(=O)N2)C[C@H]1F [Example 374, 2-(((3R,4S)-3-fluoro-1-((S)-5-oxopyrrolidine-2-carbonyl)piperidin-4-yl)oxy)-5-(4-((2-fluoro-4-(4-(oxetan-3-yl)piperazin-1-yl)phenyl)amino)-1,3,5-triazin-2-yl)benzonitrile]
IC50 (IKKε): ≥ 1000 nM
IC50 (hJAK2): ≥ 1000 nM
IC50 (TBK1): 1000 nM

C[C@H](O)C(=O)N1CC[C@H](Oc2ccc(-c3ncnc(Nc4ccc(N5CCN(C6COC6)CC5)cc4F)n3)cc2C#N)[C@H](F)C1 [Example 375, 2-(((3R,4S)-3-fluoro-1-((S)-2-hydroxypropanoyl)piperidin-4-yl)oxy)-5-(4-((2-fluoro-4-(4-(oxetan-3-yl)piperazin-1-yl)phenyl)amino)-1,3,5-triazin-2-yl)benzonitrile]
IC50 (IKKε): ≥ 1000 nM
IC50 (hJAK2): ≥ 1000 nM
IC50 (TBK1): 1000 nM

N#Cc1cc(-c2ncnc(Nc3ccc(N4CCN(C5COC5)CC4)cc3)n2)ccc1O[C@H]1CCN(C(=O)c2cn(CCO)nn2)C[C@H]1F [Example 376]
IC50 (IKKε): 3 nM
IC50 (hJAK2): 127 nM
IC50 (TBK1): 5 nM

C[C@H](O)C(=O)N1CC[C@H](Oc2ccc(-c3ncnc(Nc4ccc(N5CCN(C6COC6)CC5)nc4)n3)cc2C#N)[C@H](F)C1 [Example 379, 2-(((3R,4S)-3-fluoro-1-((S)-2-hydroxypropanoyl)piperidin-4-yl)oxy)-5-(4-((6-(4-(oxetan-3-yl)piperazin-1-yl)pyridin-3-yl)amino)-1,3,5-triazin-2-yl)benzonitrile]
IC50 (IKKε): 3 nM
IC50 (hJAK2): ≥ 1000 nM
IC50 (TBK1): 5 nM

CCOC(=O)c1cccc(Nc2ncnc(-c3ccc(O[C@H]4CCN(C(=O)[C@H](C)O)C[C@H]4F)c(C#N)c3)n2)c1 [Example 380, Ethyl 3-((4-(3-cyano-4-(((3R,4S)-3-fluoro-1-((S)-2-hydroxypropanoyl)piperidin-4-yl)oxy)phenyl)-1,3,5-triazin-2-yl)amino)benzoate]
IC50 (IKKε): 8 nM
IC50 (hJAK2): 891 nM
IC50 (TBK1): 6 nM

C[C@H](O)C(=O)N1CC[C@H](Oc2ccc(-c3ncnc(Nc4ccc(C(C)(C)O)nc4)n3)cc2C#N)[C@H](F)C1 [Example 382, 2-(((3R,4S)-3-fluoro-1-((S)-2-hydroxypropanoyl)piperidin-4-yl)oxy)-5-(4-((6-(2-hydroxypropan-2-yl)pyridin-3-yl)amino)-1,3,5-triazin-2-yl)benzonitrile]
IC50 (IKKε): 3 nM
IC50 (hJAK2): ≥ 1000 nM
IC50 (TBK1): 3 nM

C[C@H](O)C(=O)N1CC[C@H](Oc2ccc(-c3ncnc(Nc4ccc(N5CCOC[C@H]5CO)cc4)n3)cc2C#N)[C@H](F)C1 [Example 383, 2-(((3R,4S)-3-fluoro-1-((S)-2-hydroxypropanoyl)piperidin-4-yl)oxy)-5-(4-((4-((R)-3-(hydroxymethyl)morpholino)phenyl)amino)-1,3,5-triazin-2-yl)benzonitrile]
IC50 (IKKε): 1 nM
IC50 (hJAK2): 568 nM
IC50 (TBK1): 2 nM

N#Cc1cc(-c2ncnc(Nc3ccc(N4CCOC[C@H]4CO)cc3)n2)ccc1O[C@H]1CCN(C(=O)CO)C[C@H]1F [Example 384, 2-(((3R,4S)-3-fluoro-1-(2-hydroxyacetyl)piperidin-4-yl)oxy)-5-(4-((4-((R)-3-(hydroxymethyl)morpholino)phenyl)amino)-1,3,5-triazin-2-yl)benzonitrile]
IC50 (IKKε): 1 nM
IC50 (hJAK2): 189 nM
IC50 (TBK1): 2 nM

C[C@H](O)C(=O)N1CC[C@H](Oc2ccc(-c3ncnc(Nc4ccc5c(c4)NC(=O)C5(C)C)n3)cc2C#N)[C@H](F)C1 [Example 385, 5-(4-((3,3-dimethyl-2-oxoindolin-6-yl)amino)-1,3,5-triazin-2-yl)-2-(((3R,4S)-3-fluoro-1-((8)-2-hydroxypropanoyl)piperidin-4-yl)oxy)benzonitrile]
IC50 (IKKε): 3 nM
IC50 (hJAK2): 888 nM
IC50 (TBK1): 2 nM

C[C@H](O)C(=O)N1CC[C@H](Oc2ccc(-c3ncnc(Nc4ccnc(C(C)(C)O)c4)n3)cc2C#N)[C@H](F)C1 [Example 386, 2-(((3R,4S)-3-fluoro-1-((S)-2-hydroxypropanoyl)piperidin-4-yl)oxy)-5-(4-((2-(2-hydroxypropan-2-yl)pyridin-4-yl)amino)-1,3,5-triazin-2-yl)benzonitrile]
IC50 (IKKε): 6 nM
IC50 (hJAK2): ≥ 1000 nM
IC50 (TBK1): 4 nM

CC(C)(O)c1ccc(Nc2ncnc(-c3ccc(O[C@H]4CCN(C(=O)CO)C[C@H]4F)c(C#N)c3)n2)cn1 [Example 388, 2-(((3R,4S)-3-fluoro-1-(2-hydroxyacetyl)piperidin-4-yl)oxy)-5-(4-((6-(2-hydroxypropan-2-yl)pyridin-3-yl)amino)-1,3,5-triazin-2-yl)benzonitrile]
IC50 (IKKε): 4 nM
IC50 (hJAK2): ≥ 1000 nM
IC50 (TBK1): 6 nM

COc1cc(Nc2ncnc(-c3ccc(O[C@H]4CCN(C(=O)[C@H](C)O)C[C@H]4F)c(C#N)c3)n2)ccc1N1CCN(C2COC2)CC1 [Example 389, 2-(((3R,4S)-3-fluoro-1-((S)-2-hydroxypropanoyl)piperidin-4-yl)oxy)-5-(4-((3-methoxy-4-(4-(oxetan-3-yl)piperazin-1-yl)phenyl)amino)-1,3,5-triazin-2-yl)benzonitrile]
IC50 (IKKε): 1 nM
IC50 (hJAK2): 55 nM
IC50 (TBK1): 2 nM

N#Cc1cc(-c2ncnc(Nc3ccc(N4CCN(C5COC5)CC4)cc3)n2)ccc1O[C@H]1CCN(C(=O)c2ccncc2N)C[C@H]1F [Example 390, 2-(((3R,4S)-1-(3-aminoisonicotinoyl)-3-fluoropiperidin-4-yl)oxy)-5-(4-((4-(4-(oxetan-3-yl)piperazin-1-yl)phenyl)amino)-1,3,5-triazin-2-yl)benzonitrile]
IC50 (IKKε): 165 nM
IC50 (hJAK2): 37 nM
IC50 (TBK1): 65 nM

N#Cc1cc(-c2ncnc(Nc3ccc(N4CCN(C5COC5)CC4)cc3)n2)ccc1O[C@H]1CCN(C(=O)c2[nH]ncc2N)C[C@H]1F [Example 391, 2-(((3R,4S)-1-(4-amino-1H-pyrazole-5-carbonyl)-3-fluoropiperidin-4-yl)oxy)-5-(4-((4-(4-(oxetan-3-yl)piperazin-1-yl)phenyl)amino)-1,3,5-triazin-2-yl)benzonitrile]
IC50 (IKKε): 9 nM
IC50 (hJAK2): 122 nM
IC50 (TBK1): 6 nM

COc1cc(Nc2ncnc(-c3ccc(O[C@H]4CCN(C(=O)CO)C[C@H]4F)c(C#N)c3)n2)ccc1N1CCN(C2COC2)CC1 [Example 392, 2-(((3R,4S)-3-fluoro-1-(2-hydroxyacetyl)piperidin-4-yl)oxy)-5-(4-((3-methoxy-4-(4-(oxetan-3-yl)piperazin-1-yl)phenyl)amino)-1,3,5-triazin-2-yl)benzonitrile]
IC50 (IKKε): 1 nM
IC50 (hJAK2): 26 nM
IC50 (TBK1): 5 nM

N#Cc1cc(-c2ncnc(Nc3ccc(N4CCN(C5COC5)CC4)c(OC(F)F)c3)n2)ccc1O[C@H]1CCN(C(=O)CO)C[C@H]1F [Example 393, 5-(4-((3-(difluoromethoxy)-4-(4-(oxetan-3-yl)piperazin-1-yl)phenyl)amino)-1,3,5-triazin-2-yl)-2-(((3R,4S)-3-fluoro-1-(2-hydroxyacetyl)piperidin-4-yl)oxy)benzonitrile]
IC50 (IKKε): 1 nM
IC50 (hJAK2): 29 nM
IC50 (TBK1): 3 nM

Cc1cc(Nc2ncnc(-c3ccc(O[C@H]4CCN(C(=O)CO)C[C@H]4F)c(C#N)c3)n2)ccc1N1CCN(C2COC2)CC1 [Example 394, 2-(((3R,4S)-3-fluoro-1-(2-hydroxyacetyl)piperidin-4-yl)oxy)-5-(4-((3-methyl-4-(4-(oxetan-3-yl)piperazin-1-yl)phenyl)amino)-1,3,5-triazin-2-yl)benzonitrile]
IC50 (IKKε): 1 nM
IC50 (hJAK2): 64 nM
IC50 (TBK1): 2 nM

C[C@H](O)C(=O)N1CC[C@H](Oc2ccc(-c3ncnc(Nc4ccc(N5CCN(C6COC6)CC5)c(OC(F)F)c4)n3)cc2C#N)[C@H](F)C1 [Example 395, 5-(4-((3-(difluoromethoxy)-4-(4-(oxetan-3-yl)piperazin-1-yl)phenyl)amino)-1,3,5-triazin-2-yl)-2-(((3R,4S)-3-fluoro-1-((S)-2-hydroxypropanoyl)piperidin-4-yl)oxy)benzonitrile]
IC50 (IKKε): 1 nM
IC50 (hJAK2): 119 nM
IC50 (TBK1): 2 nM

Cc1cc(Nc2ncnc(-c3ccc(O[C@H]4CCN(C(=O)[C@H](C)O)C[C@H]4F)c(C#N)c3)n2)ccc1N1CCN(C2COC2)CC1 [Example 396, 2-(((3R,4S)-3-fluoro-1-((S)-2-hydroxypropanoyl)piperidin-4-yl)oxy)-5-(4-((3-methyl-4-(4-(oxetan-3-yl)piperazin-1-yl)phenyl)amino)-1,3,5-triazin-2-yl)benzonitrile]
IC50 (IKKε): 1 nM
IC50 (hJAK2): 137 nM
IC50 (TBK1): 2 nM

CC(C)(O)c1cc(Nc2ncnc(-c3ccc(O[C@H]4CCN(C(=O)CO)C[C@H]4F)c(C#N)c3)n2)ccn1 [Example 397, 2-(((3R,4S)-3-fluoro-1-(2-hydroxyacetyl)piperidin-4-yl)oxy)-5-(4-((2-(2-hydroxypropan-2-yl)pyridin-4-yl)amino)-1,3,5-triazin-2-yl)benzonitrile]
IC50 (IKKε): 2 nM
IC50 (hJAK2): 960 nM
IC50 (TBK1): 2 nM

CN1CC[C@H](Oc2ccc(Nc3ncnc(-c4ccc(O[C@H]5CCN(C(=O)[C@@H](O)CO)C[C@H]5F)c(C#N)c4)n3)cc2)[C@H](F)C1 [Example 398, 2-(((3R,4S)-1-((S)-2,3-dihydroxypropanoyl)-3-fluoropiperidin-4-yl)oxy)-5-(4-((4-(((3R,4S)-3-fluoro-1-methylpiperidin-4-yl)oxy)phenyl)amino)-1,3,5-triazin-2-yl)benzonitrile]
IC50 (IKKε): 1 nM
IC50 (hJAK2): 763 nM
IC50 (TBK1): 3 nM
